17 compounds from patent publication US20240383915A1, “OXAZEPINE COMPOUNDS AND USES THEREOF IN THE TREATMENT OF CANCER” (Genentech, Inc., priority 2021, published 2024) can be followed below.

In experiment [1] the target is KRas(G12V) (Homo sapiens (Human), UniProt P01116, G12V). The experiment in a line: KRas(G12V) GDP HTRF (BODIPY-GDP exchange TR-FRET). It counts as biochemical. In general terms: TR-FRET usually uses a lanthanide donor and a delayed reading to cut background.
In experiment [2] the target is KRas (Homo sapiens (Human), UniProt P01116). Description: KRas GDP HTRF (BODIPY-GDP exchange TR-FRET). It counts as biochemical. Summed up:
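Inhibition of SOS1-mediated exchange of BODIPY-GDP on KRAS G12D, started with 3 nM recombinant human SOS1 and 300 nM BODIPY-GDP and read after 60 min. TR-FRET excitation 337 nm, ratio 520/490 nm ×10,000. IC50 from 4-parameter Hill fit of normalized data.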

Experiment [3] has as its system SW480 cells. Description: SW480 proliferation assay. It counts as cell-based. As to conditions: Homo sapiens, SW480, SW480; read-out: SW480 Prolif IC50 (G12V).
Experiment [4] has as its system PC-9 cells. Description: PC9 proliferation assay. It counts as cell-based, human. The conditions noted are these: Homo sapiens, PC-9, PC9; read-out: PC9 Prolif IC50 (G12V).

pIC50: −log10 of the molar value.

Sequence of KRas (P01116-2 other isoform, or with tags, fused parts or gaps): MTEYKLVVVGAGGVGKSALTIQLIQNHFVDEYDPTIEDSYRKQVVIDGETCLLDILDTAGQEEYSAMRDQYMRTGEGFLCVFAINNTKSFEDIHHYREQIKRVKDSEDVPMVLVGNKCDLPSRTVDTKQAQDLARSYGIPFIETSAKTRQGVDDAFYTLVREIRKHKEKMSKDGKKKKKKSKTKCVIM
Sequence of KRas(G12V) (P01116-2 other isoform, or with tags, fused parts or gaps G12V): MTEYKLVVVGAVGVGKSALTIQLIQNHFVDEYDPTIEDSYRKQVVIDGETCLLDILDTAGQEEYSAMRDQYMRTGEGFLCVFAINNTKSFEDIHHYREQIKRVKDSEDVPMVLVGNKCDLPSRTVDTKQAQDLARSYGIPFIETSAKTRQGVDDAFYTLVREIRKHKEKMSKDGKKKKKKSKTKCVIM

By pIC50 is commonly meant the negative decadic logarithm of the IC50, by convention in mol/L. Consider `Cc1cc(N)cc(-c2cc3nc(OC[C@@]45CCCN4C[C@H](F)C5)nc4c3c(c2Cl)OCCN4C)c1C(F)(F)F` [Example 39, 3-(8-chloro-2-(((2R,7aS)-2-fluorotetrahydro-1H-pyrrolizin-7a(5H)-yl)methoxy)-4-methyl-5,6-dihydro-4H-[1, 4]oxazepino[5,6,7-de]quinazolin-9-yl)-5-methyl-4-(trifluoromethyl)aniline], for which the pIC50 in experiment [1] was 7.62; in experiment [2], 6.85; in experiment [3], 4.70; in experiment [4], 4.70.
Consider `C=C1CN2CCC[C@@]2(COc2nc3c4c(c(Cl)c(-c5nc(N)cc(C)c5C(F)(F)F)c(F)c4n2)OCCN3C)C1` [Example 40], for which the pIC50 in experiment [1] is 9.00; in experiment [2], 8.34; in experiment [3] it was 5.92; in experiment [4] it was 5.68.
The corresponding values for `C=C1CN2CCC[C@@]2(COc2nc3c4c(c(Cl)c(-c5nc(N)cc(C)c5C(F)(F)F)cc4n2)OCCN3C)C1` [Example 44, (S)-6-(8-chloro-4-methyl-2-((2-methylenetetrahydro-1H-pyrrolizin-7a(5H)-yl)methoxy)-5,6-dihydro-4H-[1,4]oxazepino[5,6,7-de]quinazolin-9-yl)-4-methyl-5-(trifluoromethyl)pyridin-2-amine] are 8.57, 7.77, 5.39 and 5.32.
The corresponding values for `Cc1cc(N)nc(-c2cc3nc(OC[C@@H]4C[C@@H](F)CN4C)nc4c3c(c2Cl)OCCN4Cc2cccnc2N)c1C(F)(F)F` [Example 49, 6-(4-((2-aminopyridin-3-yl)methyl)-8-chloro-2-(((2S,4R)-4-fluoro-1-methylpyrrolidin-2-yl)methoxy)-5,6-dihydro-4H-[1,4]oxazepino[5,6,7-de]quinazolin-9-yl)-4-methyl-5-(trifluoromethyl)pyridin-2-amine] are 9.24, 8.42, 5.96 and 5.42.
The corresponding values for `Cc1cc(N)nc(-c2cc3ncnc4c3c(c2Cl)OCCN4CCn2ccccc2=O)c1C(F)(F)F` [Example 51, 1-(2-(9-(6-amino-4-methyl-3-(trifluoromethyl)pyridin-2-yl)-8-chloro-5,6-dihydro-[1,4]oxazepino[5,6,7-de]quinazolin-4-yl)ethyl)pyridin-2(1H)-one] are 5.02, 4.92, 4.70 and 4.70.
With `C=C1CN2CCC[C@@]2(COc2nc3c4c(c(Cl)c(-c5cc(O)cc6ccccc56)cc4n2)OCCN3C)C1` [Example 59, (S)-4-(8-chloro-4-methyl-2-((2-methylenetetrahydro-1H-pyrrolizin-7a(5H)-yl)methoxy)-5,6-dihydro-4H-[1,4]oxazepino[5,6,7-de]quinazolin-9-yl)naphthalen-2-ol], the negative logarithm of the IC50 (pIC50) in experiment [1] was 7.24; in experiment [2], 6.57; in experiment [3], 5.15; in experiment [4], 5.24.
Take `Cc1cc(N)nc(-c2cc3nc(OC[C@@]45CCCN4C[C@H](F)C5)nc4c3c(c2Cl)OCCN4Cc2cccnc2N)c1C(F)(F)F` [Example 60, 6-(4-((2-aminopyridin-3-yl)methyl)-8-chloro-2-(((2R,7aS)-2-fluorotetrahydro-1H-pyrrolizin-7a(5H)-yl)methoxy)-5,6-dihydro-4H-[1,4]oxazepino[5,6,7-de]quinazolin-9-yl)-4-methyl-5-(trifluoromethyl)pyridin-2-amine]: the pIC50 was 9.38 in experiment [1], 9.32 in experiment [2], 6.64 in experiment [3] and 5.57 in experiment [4].
On to `Nc1ncccc1CN1CCOc2c(Cl)c(-c3cc(O)cc4ccccc34)cc3nc(OC[C@@]45CCCN4C[C@H](F)C5)nc1c23` [Example 61, 4-(4-((2-aminopyridin-3-yl)methyl)-8-chloro-2-(((2R,7aS)-2-fluorotetrahydro-1H-pyrrolizin-7a(5H)-yl)methoxy)-5,6-dihydro-4H-[1,4]oxazepino[5,6,7-de]quinazolin-9-yl)naphthalen-2-ol], for which the negative logarithm of the IC50 (pIC50) in experiment [1] is 9.07; in experiment [2] it was 8.37; in experiment [3] it was 6.03; in experiment [4], 5.51.
The corresponding values for `Nc1ncccc1CN1CCOc2c(Cl)c(-c3cccc4ccccc34)cc3nc(OC[C@@]45CCCN4C[C@H](F)C5)nc1c23` [Example 62, 3-((8-chloro-2-(((2R,7aS)-2-fluorotetrahydro-1H-pyrrolizin-7a(5H)-yl)methoxy)-9-(naphthalen-1-yl)-5,6-dihydro-4H-[1,4]oxazepino[5,6,7-de]quinazolin-4-yl)methyl)pyridin-2-amine] are 7.92, 7.02, 5.31 and 5.47.
Regarding `Nc1ncccc1CN1CCOc2c(Cl)c(-c3cccc4c3CCC4)cc3nc(OC[C@@]45CCCN4C[C@H](F)C5)nc1c23` [Example 63, 3-((8-chloro-9-(2,3-dihydro-1H-inden-4-yl)-2-(((2R,7aS)-2-fluorotetrahydro-1H-pyrrolizin-7a(5H)-yl)methoxy)-5,6-dihydro-4H-[1,4]oxazepino[5,6,7-de]quinazolin-4-yl)methyl)pyridin-2-amine], the pIC50 in experiment [1] is 8.06; in experiment [2] it was 7.16; in experiment [3] it was 5.48; in experiment [4], 5.40.
As for `Nc1ncccc1CN1CCOc2c(Cl)c(-c3cccc(CO)c3)cc3nc(OC[C@@]45CCCN4C[C@H](F)C5)nc1c23` [Example 64, (3-(4-((2-aminopyridin-3-yl)methyl)-8-chloro-2-(((2R,7aS)-2-fluorotetrahydro-1H-pyrrolizin-7a(5H)-yl)methoxy)-5,6-dihydro-4H-[1,4]oxazepino[5,6,7-de]quinazolin-9-yl)phenyl)methanol], the pIC50 is 6.54 in experiment [1], 5.57 in experiment [2], 4.77 in experiment [3] and 5.27 in experiment [4].
The corresponding values for `C=C1CN2CCC2(COc2nc3c4c(c(Cl)c(-c5nc(N)cc(C)c5C(F)(F)F)c(F)c4n2)OCCN3[C@H](C)c2cccnc2N)C1` (stereo partly drawn) [Example 118, (6R)-6-(4-((R)-1-(2-aminopyridin-3-yl)ethyl)-8-chloro-10-fluoro-2-((3-methylene-1-azabicyclo[3.2.0]heptan-5-yl)methoxy)-5,6-dihydro-4H-[1,4]oxazepino[5,6,7-de]quinazolin-9-yl)-4-methyl-5-(trifluoromethyl)pyridin-2-amine] are 10.22, 9.72, 7.48 and 6.14.
As for `C[C@H](c1cccnc1N)N1CCOc2c(Cl)c(-c3cc(O)cc4ccccc34)c(F)c3nc(OC[C@@]45CCCN4C[C@H](F)C5)nc1c23` [Example 119, 4-(4-((R)-1-(2-aminopyridin-3-yl)ethyl)-8-chloro-10-fluoro-2-(((2R,7aS)-2-fluorotetrahydro-1H-pyrrolizin-7a(5H)-yl)methoxy)-5,6-dihydro-4H-[1,4]oxazepino[5,6,7-de]quinazolin-9-yl)naphthalen-2-ol], the pIC50 in experiment [1] is 10.30; in experiment [2], 9.85; in experiment [3], 7.80; in experiment [4] it was 5.52.
The corresponding values for `Cc1cc(N)nc(-c2c(Cl)c3c4c(nc(OCC5CCN(C)C5)nc4c2F)N([C@H](C)c2cccnc2N)CCO3)c1C(F)(F)F` (stereo partly drawn) [Example 134, 6-((9R)-4-((R)-1-(2-aminopyridin-3-yl)ethyl)-8-chloro-10-fluoro-2-((1-methylpyrrolidin-3-yl)methoxy)-5,6-dihydro-4H-[1,4]oxazepino[5,6,7-de]quinazolin-9-yl)-4-methyl-5-(trifluoromethyl)pyridin-2-amine] are 10.10, 9.68, 6.23 and 5.80.
The corresponding values for `Cc1cc(N)nc(-c2c(Cl)c3c4c(nc(OCC5CCCN(C)C5)nc4c2F)N([C@H](C)c2cccnc2N)CCO3)c1C(F)(F)F` (stereo partly drawn) [Example 137, 6-((9R)-4-((R)-1-(2-aminopyridin-3-yl)ethyl)-8-chloro-10-fluoro-2-((1-methylpiperidin-3-yl)methoxy)-5,6-dihydro-4H-[1,4]oxazepino[5,6,7-de]quinazolin-9-yl)-4-methyl-5-(trifluoromethyl)pyridin-2-amine] are 10.15, 9.80, 6.85 and 5.96.
The corresponding values for `Cc1cc(N)nc(-c2c(Cl)c3c4c(nc(OCCC5CCCN5C)nc4c2F)N([C@H](C)c2cccnc2N)CCO3)c1C(F)(F)F` (stereo partly drawn) [Example 139, 6-((9R)-4-((R)-1-(2-aminopyridin-3-yl)ethyl)-8-chloro-10-fluoro-2-(2-(1-methylpyrrolidin-2-yl)ethoxy)-5,6-dihydro-4H-[1,4]oxazepino[5,6,7-de]quinazolin-9-yl)-4-methyl-5-(trifluoromethyl)pyridin-2-amine] are 10.10, 9.69, 6.62 and 6.08.
Regarding `Cc1cc(N)nc(-c2c(Cl)c3c4c(nc(OCC5COCCN5C)nc4c2F)N([C@H](C)c2cccnc2N)CCO3)c1C(F)(F)F` (stereo partly drawn) [Example 140, 6-((9R)-4-((R)-1-(2-aminopyridin-3-yl)ethyl)-8-chloro-10-fluoro-2-((4-methylmorpholin-3-yl)methoxy)-5,6-dihydro-4H-[1,4]oxazepino[5,6,7-de]quinazolin-9-yl)-4-methyl-5-(trifluoromethyl)pyridin-2-amine], the pIC50 in experiment [1] was 9.77; in experiment [2], 9.22; in experiment [3], 7.29; in experiment [4] it was 5.42.
